Structures can show the parent of a compound that is named as a salt.
Columns and labels:
hematin polymerization = experiment: Inhibition of the hematin polymerisation (β-hematin formation), UV-Vis absorbance at 405 nm; format: biochemical; conditions: for Maximum inhibition (%) / IC50 drug (equiv.)/hematin (equiv.) ratio: inhibition of β-hematin formation; for IC50 drug (equiv.)/hematin (equiv.) ratio: absorbance at 405 nm
Protocol: The antischistosomial effect is measured by the evaluation of the ability of the compounds to inhibit hematin polymerization according to the biochemical assay previously developed by Ncokazi. K. K. Egan. T. J. Anal. Biochem. 2005, 338, 306-319 adapted to the compounds of the present invention. The assays were monitored by UV-Vis absorption spectrophotometry and IC50 values for inhibition of β-hematin formation were determined from the absorbance at 405 nm versus the drug (equiv.)/hematin (equiv.) ratio.

[1] = Complex formation with hematin (apparent association constants); format: binding; conditions: pH 7.5; 1:1 charge-transfer complexes with hematin
Excerpt: Both 3-benzylnaphtoquinone derivatives form 1:2 or 2:1 complexes with hematin displaying apparent association constants at pH 7.5 of about 10^11-10^13 M^−1. Also the benzoxanthone derivative LJ144K form 1:1 charge-transfer complexes with hematin displaying apparent association constants at pH 7.5 of about 10^5-10^6 M^−1.

P. falciparum strain 3D7 = experiment: Antimalarial assay, chloroquine-sensitive P. falciparum 3D7; format: cell-based, Plasmodium falciparum; conditions: chloroquine-sensitive strain 3D7
P. falciparum strain Dd2 = experiment: 3H-hypoxanthine incorporation antiproliferation assay, P. falciparum Dd2; format: cell-based, Plasmodium falciparum; conditions: multi-resistant P. falciparum strain Dd2
Protocol: Infected erythrocytes in ring stage (0.5% parasitemia, 2.5% hematocrit) in 96-well plates were exposed to the compounds for 48 h and then to radioactive hypoxanthine for 24 h. The amount of radioactivity in precipitable material served as an index of cell proliferation.

SMILES	melting point	further results
COc1ccc2c(c1)C(=O)C(C)=C(Cc1ccc(Br)cc1)C2=O [Compound 12.7, 3-(4-bromobenzyl)-7-methoxy-2-methylnaphthalene-1,4-dione]	149 to 151 °C	
COc1cc(CC2=C(C)C(=O)c3ccc(OC)cc3C2=O)cc(OC)c1 [Compound 12.4, 3-(3,5-dimethoxybenzyl)-6-methoxy-2-methylnaphthalene-1,4-dione]	149 °C	
CC1=C(Cc2ccc(C(F)(F)F)cc2)C(=O)c2c(C)cccc2C1=O [Compound 12.19, 2,5-dimethyl-3-(4-(trifluoromethyl)benzyl)naphthalene-1,4-dione]	87 to 88 °C	
COc1ccc(OC)c(CC2=C(C)C(=O)c3cc(OC)c(OC)cc3C2=O)c1 [Compound 12.14, 2-14(2,5-dimethoxybenzyl)-6,7-dimethoxy-3-methylnaphthalene-1,4-dione]	166 to 167 °C	
CC1=C(Cc2ccc(F)c(Cl)c2)C(=O)c2ccc(F)cc2C1=O [Compound 12.17, 2-(3-chloro-4-fluorobenzyl)-6-fluoro-3-methylnaphthalene-1,4-dione]	117 to 118 °C	
COc1ccc2c(c1)C(=O)C(Cc1ccc(C(F)(F)F)cc1)=C(C)C2=O [Compound 12.2]	86 to 87 °C	
COc1cc2c(cc1OC)C(=O)C(Cc1ccc(Br)cc1)=C(C)C2=O [Compound 12.12, 6,7-dimethoxy-2-methyl-3-(4-bromobenzyl)naphthalene-1,4-dione]	> 200 °C (dec.)	
CC1=C(Cc2ccc(F)c(C(F)(F)F)c2)C(=O)c2ccc(F)cc2C1=O [Compound 12.18, 6-fluoro-2-(4-fluoro-3-(trifluoromethyl)benzyl)-3-methylnaphthalene-1,4-dione]	106 to 107 °C	
COc1cc(CC2=C(C)C(=O)c3cc(OC)c(OC)cc3C2=O)cc(OC)c1 [Compound 12.13, 2-(3,5-dimethoxybenzyl)-6,7-dimethoxy-3-methylnaphthalene-1,4-dione]	168 to 169 °C	
COc1cc(CC2=C(C)C(=O)c3cc(OC)ccc3C2=O)cc(OC)c1 [Compound 12.9, 3-(3,5-dimethoxybenzyl)-7-methoxy-2-methylnaphthalene-1,4-dione]	151 to 153 °C	
Cc1c(O)c2ccccc2c2oc3cc(C(F)(F)F)ccc3c(=O)c12 [LJ144K, 5-hydroxy-6-methyl-10-(trifluoromethyl)-7H-benzo[c]xanthen-7-one]		Maximum inhibition (%) (hematin polymerization): 75%; IC50 drug (equiv.)/hematin (equiv.) ratio (hematin polymerization): 2.5 drug (equiv.)/hematin (equiv.) ratio; apparent association constants with hematin [1]: 10^5-10^6 M^−1; IC50 values, antimalarial effects (P. falciparum strain 3D7): submicromolar range
COc1ccc2c(c1)C(=O)C(C)=C(Cc1ccc(C(F)(F)F)cc1)C2=O [Compound 12.8]	137 to 139 °C	
COc1cc2c(cc1OC)C(=O)C(Cc1ccc(C(F)(F)F)cc1)=C(C)C2=O [Compound 12.11, 6,7-dimethoxy-2-methyl-3-(4-(trifluoromethyl)benzyl)naphthalene-1,4-dione]	> 200 °C (dec.)	
COc1ccc2c(c1)C(=O)C(Cc1ccc(Br)cc1)=C(C)C2=O [Compound 12.1, 3-(4-bromobenzyl)-6-methoxy-2-methylnaphthalene-1,4-dione]	135 to 137 °C	
CC1=C(Cc2ccc(Br)cc2)C(=O)c2ccc(F)cc2C1=O [Compound 12.16, 2-(4-bromobenzyl)-6-fluoro-3-methylnaphthalene-1,4-dione]	107 °C	
CC1=C(Cc2ccc(Br)cc2)C(=O)c2c(C)cccc2C1=O [Compound 12.20, 3-(4-bromobenzyl)-2,5-dimethylnaphthalene-1,4-dione]	149 to 150 °C	
CC1=C(Cc2ccc(Br)cc2)C(=O)c2cc(F)ccc2C1=O [Compound 12.5, 3-(4-bromobenzyl)-6-fluoro-2-methylnaphthalene-1,4-dione]	127 to 129 °C	
CC1=C(Cc2ccncc2)C(=O)c2ccccc2C1=O [LJ186]		inhibition of the β-hematin polymerization (hematin polymerization): very potent inhibitors; Maximum inhibition (%) (hematin polymerization): 80%; IC50 drug (equiv.)/hematin (equiv.) ratio (hematin polymerization): 4.2 drug (equiv.)/hematin (equiv.) ratio; antimalarial activity relative to chloroquine and P_TM29 (P. falciparum strain Dd2): more active than chloroquine or as active as P_TM29

Further lines, with some results ahead:

melting point	SMILES	further results
102 °C	CC1=C(Cc2ccc(C(F)(F)F)cc2)C(=O)c2ccc(C)cc2C1=O [Compound 12.23, 2,7-dimethyl-3-(4-(trifluoromethyl)benzyl)naphthalene-1,4-dione]	
143 to 144 °C	CC1=C(Cc2ccc(C(F)(F)F)cc2)C(=O)c2cc(C)c(C)cc2C1=O [Compound 12.27, 2,6,7-trimethyl-3-(4-(trifluoromethyl)benzyl)naphthalene-1,4-dione]	
87 to 88 °C	CC1=C(Cc2ccc(C(F)(F)F)cc2)C(=O)c2ccc(OS(=O)(=O)C(F)(F)F)cc2C1=O (as salt: methanesulfonate) [Compound 12.30, 7-methyl-5,8-dioxo-6-(4-(trifluoromethyl)benzyl)-5,8-dihydronaphthalen-2-yl trifluoromethanesulfonate]	
129 to 130 °C	CC1=C(Cc2ccc(Br)cc2)C(=O)c2cc(C)c(C)cc2C1=O [Compound 12.28, 2,6,7-trimethyl-3-(4-bromobenzyl)naphthalene-1,4-dione]	
116 to 118 °C	CC1=C(Cc2ccc(Br)cc2)C(=O)c2cccc(C)c2C1=O [Compound 12.26, 2,8-dimethyl-3-(4-bromobenzyl)naphthalene-1,4-dione]	
127 °C	CC1=C(Cc2ccc(C(F)(F)F)cc2)C(=O)c2cc(OS(=O)(=O)C(F)(F)F)ccc2C1=O (as salt: methanesulfonate) [Compound 12.29, 6-methyl-5,8-dioxo-7-(4-(trifluoromethyl)benzyl)-5,8-dihydronaphthalen-2-yl trifluoromethanesulfonate]	
98 to 99 °C	CC1=C(Cc2ccc(C(F)(F)F)cc2)C(=O)c2cccc(C)c2C1=O [Compound 12.25, 2,8-dimethyl-3-(4-(trifluoromethyl)benzyl)naphthalene-1,4-dione]	
122 to 123 °C	CC1=C(Cc2ccc(Br)cc2)C(=O)c2ccc(C)cc2C1=O [Compound 12.24, 2,7-dimethyl-3-(4-bromobenzyl)naphthalene-1,4-dione]	

— patent US9409879B2, “Total synthesis of redox-active 1.4-naphthoquinones and their metabolites and their therapeutic use as antimalarial and schistomicidal agents” (CENTRE NATIONAL DE LA RECHERCHE SCIENTIFIQUE, priority 2011, dated 2016)
